Experimental data published in patent US20250092065A1, “2-(INDAZOL-5-YL)-6-(PIPERIDIN-4-YL)-1,7-NAPHTHYRIDINE DERIVATIVES AND RELATED COMPOUNDS AS MODULATORS FOR SPLICING NUCLEIC ACIDS AND FOR THE TREATMENT OF PROLIFERATIVE DISEASES” (REMIX THERAPEUTICS INC., priority 2022, published 2025).
pIC50: −log10 of the molar value. Where two headings read alike, the source gives them in different places.

Key:
[1] = test system: K562 cells; experiment: Cell Titer Glo 2.0 cell viability (toxicity) assay, K562; settings: 500 cells/well, 72 hours
[2] = test system: HTT mRNA; experiment: RT-qPCR splicing assay, HTT mRNA canonical (CJ) and alternative (AJ) junction; assay type: cell-based, human; settings: Homo sapiens; for AC50: HTT alternative junction mRNA, read-out: HTT AJ (increase in AJ mRNA, AC50)
In short: (§1)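 A673 or K562 cells treated 24 h at 37 °C with an 11-point 3-fold dilution series (top 10 uM, DMSO ≤0.25%). Lysates went directly to one-step RT-qPCR quantifying canonical (CJ) and alternative-exon (AJ) junctions, normalized to GAPDH, GUSB or PPIA. Values from ΔΔCt versus DMSO, RQ = 2^(−ΔΔCt), expressed as percentage response.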

[3] = test system: MYB; experiment: HiBiT protein abundance assay, MYB (K562 HiBiT knock-in); assay type: cell-based, human; settings: HiBiT knock-in K562 cells, 24 hours, top dose 10 μM
In short: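 Tagged-protein levels were measured as HiBiT/LgBiT luminescence in lysed K562 knock-in cells exposed to serially diluted compound (up to 10 μM final) for 24 hours. A four-parameter logistic regression of control-normalized signal yielded the IC50.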

[4] = test system: SMN2 mRNA; experiment: RT-qPCR splicing assay, SMN2 mRNA; assay type: cell-based, human; settings: Homo sapiens, canonical junction qPCR panel, Table 4; read-out: SMN2 IC50 (decrease in CJ mRNA levels)
In short: as §1

[5] = HTT canonical junction mRNA, RT-qPCR, read-out: HTT CJ (decrease in CJ mRNA levels, IC50)
[6] = canonical junction qPCR panel, Table 4, read-out: HTT IC50 (decrease in CJ mRNA levels)

Row | Compound | pIC50 [2, 5] | pIC50 [2, 6] | pIC50 [3] | pIC50 [4] | Effect of Exemplary Compounds on Cell Viability, K562 [1] | AC50 ([2]; RT-qPCR) [nM]
1 | CN[C@@H]1CCN(c2ccc3nc(-c4cc5cn(C)nc5c(F)c4O)nc(C4CC4)c3c2)C1 [Compound 543, 5-{4-cyclopropyl-6-[(3R)-3-(methylamino)pyrrolidin-1-yl]quinazolin-2-yl}-7-fluoro-2-methylindazol-6-ol] | > 7.00 | > 7.00 | > 7.00 | > 7.00 | A (A represents <100 nM) | < 100
2 | Cc1cn2cc(-c3ccc4cc(N5C[C@@H](C)N[C@@H](C)C5)cc(F)c4n3)cc(F)c2n1 [Compound 544, 6-[(3R,5S)-3,5-dimethylpiperazin-1-yl]-8-fluoro-2-{8-fluoro-2-methylimidazo[1,2-a]pyridin-6-yl}quinoline] | 6.00 to 7.00 | 6.00 to 7.00 | 6.00 to 7.00 | > 7.00 | B (B represents 100-1000 nM) | 100 to 1000
3 | Cc1c(O)c(-c2ncc3cc(N4C[C@H](C)N[C@@H](C)C4)ccc3n2)cc2cn(C)nc12 [Compound 660, 5-{6-[(3S,5S)-3,5-dimethylpiperazin-1-yl]quinazolin-2-yl}-2,7-dimethylindazol-6-ol] | 6.00 to 7.00 | 6.00 to 7.00 | > 7.00 | > 7.00 | A (A represents <100 nM) | 100 to 1000
4 | CNC(=O)c1nc(-c2cc3cn(C)nc3c(C)c2O)nc2ccc(N3CCC(N4CCC4)CC3)cc12 [Compound 706] | 6.00 to 7.00 | 6.00 to 7.00 | > 7.00 | > 7.00 | A (A represents <100 nM) | 1000 to 10000
5 | CNC(=O)c1nc(-c2cc3cn(C)nc3c(F)c2O)nc2ccc(N3CCC(N4CCC4)CC3)cc12 [Compound 722, 6-[4-(azetidin-1-yl)piperidin-1-yl]-2-(7-fluoro-6-hydroxy-2-methylindazol-5-yl)-N-methylquinazoline-4-carboxamide] | > 7.00 | > 7.00 | > 7.00 | > 7.00 | A (A represents <100 nM) | 100 to 1000
6 | Cc1cc(N2C[C@@H](C)N[C@@H](C)C2)cc2c(Cl)cc(-c3cc4cn(C)nc4c(F)c3O)nc12 [Compound 723, 5-{4-chloro-6-[(3R,5S)-3,5-dimethylpiperazin-1-yl]-8-methylquinolin-2-yl}-7-fluoro-2-methylindazol-6-ol] | > 7.00 | > 7.00 | > 7.00 | > 7.00 | A (A represents <100 nM) | 100 to 1000
7 | CNC(=O)c1nc(-c2cc3cn(C)nc3c(F)c2O)nc2ccc(N3CCNC4(CC4)C3)cc12 [Compound 728, 6-{4,7-diazaspiro[2.5]octan-7-yl}-2-(7-fluoro-6-hydroxy-2-methylindazol-5-yl)-N-methylquinazoline-4-carboxamide] | 6.00 to 7.00 | 6.00 to 7.00 | > 7.00 | > 7.00 | A (A represents <100 nM) | 100 to 1000
8 | CNC(=O)c1nc(-c2cc3cn(C)nc3c(F)c2O)nc2ccc(N3CC[C@@H](NC)C3)cc12 [Compound 729, 2-(7-fluoro-6-hydroxy-2-methylindazol-5-yl)-N-methyl-6-[(3R)-3-(methylamino)pyrrolidin-1-yl]quinazoline-4-carboxamide] | > 7.00 | > 7.00 | > 7.00 | > 7.00 | A (A represents <100 nM) | < 100
9 | C[C@@H]1CN(c2ccc3nc(-c4cc5cn(C)nc5c(F)c4O)nc(-c4nccs4)c3c2)C[C@H](C)N1 [Compound 732, 5-{6-[(3R,5S)-3,5-dimethylpiperazin-1-yl]-4-(1,3-thiazol-2-yl)quinazolin-2-yl}-7-fluoro-2-methylindazol-6-ol] | < 5.00 | < 5.00 | 5.00 to 6.00 | 6.00 to 7.00 | B (B represents 100-1000 nM) | > 10000
10 | CNC(=O)c1nc(-c2cc3cn(C)nc3cc2O)nc2ccc(N3CCC(N(C)C)CC3)cc12 [Compound 742, 6-[4-(dimethylamino)piperidin-1-yl]-2-(6-hydroxy-2-methylindazol-5-yl)-N-methylquinazoline-4-carboxamide] | 6.00 to 7.00 | 6.00 to 7.00 | 6.00 to 7.00 | > 7.00 | A (A represents <100 nM) | > 10000

Second part, led by results:

Row | pIC50 [2, 5] | pIC50 [2, 6] | pIC50 [3] | pIC50 [4] | Compound | Effect of Exemplary Compounds on Cell Viability, K562 [1] | AC50 ([2]; RT-qPCR) [nM]
11 | 5.00 to 6.00 | 5.00 to 6.00 | > 7.00 | > 7.00 | C[C@@H]1CN(c2ccc3nc(-c4cc5cn(C)nc5c(F)c4O)nc(C4CC4)c3c2)C[C@H](C)N1 [Compound 542, 5-{4-cyclopropyl-6-[(3R,5S)-3,5-dimethylpiperazin-1-yl]quinazolin-2-yl}-7-fluoro-2-methylindazol-6-ol] | B (B represents 100-1000 nM) | 1000 to 10000
12 | 6.00 to 7.00 | 6.00 to 7.00 | > 7.00 | > 7.00 | CNC(=O)c1nc(-c2cc3cn(C)nc3c(C)c2O)nc2ccc(N3C[C@H](C)N[C@@H](C)C3)cc12 [Compound 652, 6-[(3S,5S)-3,5-dimethylpiperazin-1-yl]-2-(6-hydroxy-2,7-dimethylindazol-5-yl)-N-methylquinazoline-4-carboxamide] | A (A represents <100 nM) | 100 to 1000
13 | 6.00 to 7.00 | 6.00 to 7.00 | > 7.00 | > 7.00 | C[C@@H]1CN(c2ccc3nc(-c4cc5cn(C)nc5c(F)c4O)nc(C#N)c3c2)C[C@H](C)N1 [Compound 707, 6-[(3R,5S)-3,5-dimethylpiperazin-1-yl]-2-(7-fluoro-6-hydroxy-2-methylindazol-5-yl) quinazoline-4-carbonitrile] | A (A represents <100 nM) | 100 to 1000
14 | 5.00 to 6.00 | 5.00 to 6.00 | > 7.00 | > 7.00 | C[C@@H]1CN(c2ccc3nc(-c4cc5cn(C)nc5c(F)c4O)nc(C(N)=O)c3c2)C[C@H](C)N1 [Compound 712, 6-[(3R,5S)-3,5-dimethylpiperazin-1-yl]-2-(7-fluoro-6-hydroxy-2-methylindazol-5-yl) quinazoline-4-carboxamide] | A (A represents <100 nM) | 1000 to 10000
15 | 6.00 to 7.00 | 6.00 to 7.00 | > 7.00 | > 7.00 | CC(=O)c1nc(-c2cc3cn(C)nc3c(F)c2O)nc2ccc(N3C[C@@H](C)N[C@@H](C)C3)cc12 [Compound 717, 1-{6-[(3R,5S)-3,5-dimethylpiperazin-1-yl]-2-(7-fluoro-6-hydroxy-2-methylindazol-5-yl)quinazolin-4-yl}ethanone] | A (A represents <100 nM) | 100 to 1000
16 | 5.00 to 6.00 | 5.00 to 6.00 | 6.00 to 7.00 | > 7.00 | C[C@@H]1CN(c2ccc3nc(-c4cc5cn(C)nc5c(F)c4O)nc(C(=O)NCCO)c3c2)C[C@H](C)N1 [Compound 737, 6-[(3R,5S)-3,5-dimethylpiperazin-1-yl]-2-(7-fluoro-6-hydroxy-2-methylindazol-5-yl)-N-(2-hydroxyethyl)quinazoline-4-carboxamide] | A (A represents <100 nM) | 1000 to 10000
